According to patent US7259172B2, “Inhibitors of β-lactamase” (priority 1999, dated 2007):
Where a name gives a salt, the structure may show the parent alone.

Experiments:
[1] = molecular target: P99 β-lactamase (class C) (Enterobacter cloacae, UniProt P05364); assay: biochemical
Procedure: Enzyme activity against the commercially available substrate, nitrocefin, was measured in the presence of various inhibitor concentrations. The P99 β-lactamase enzyme (1 mg/mL) was dissolved in 20 mM MOPS buffer at pH 7.50, and diluted 200-fold in the same buffer containing 0.1% BSA. Nitrocefin was stored as a 100 μM stock solution in 20 mM MOPS at pH 7.5. Stock solutions of test compounds were prepared in 10 mM MOPS at pH 7.5 (approximately 1 mg/mL)
The reaction at 25° C. was followed spectrophotometrically at 482 nm. IC50 values were determined from the dose-response plots of the initial rates vs. inhibitor concentration

[2] = system: Enterobacter cloacae [ATCC #23355]; assay type: cell-based; conditions: ratio antibiotic MIC without/with inhibitor; inhibitor 10 μg/mL
From the text: An increasing number of organisms produce enzymes that inhibit the actions of β-lactam antibiotics, so-called β-lactamases. […] The Minimum Inhibitory Concentration (MIC) test determines the lowest concentration of an antibiotic at which no visible bacterial growth occurs. This test permits comparisons to be made between bacterial growth in the presence of antibiotic alone (control) and bacterial growth in the presence of both an antibiotic and a novel (test) compound.
(§1) Frozen bacterial stocks were thawed to room temperature, and a few drops were placed on an appropriate plate; chocolate agar was used for H. influenzae, blood agar was used for all others. The plates were incubated overnight at 37° C. in air, except for H. influenzae, which was incubated in a CO2 incubator. The cultures were subcultured the following day, and the subcultures were again incubated overnight
A sterile loop was touched to 3 colonies and used to inoculate 1 mL of Mueller-Hinton Broth (MHB). […] 5 μL of the resultant inoculum solution contained ˜4×10^4 CFU/mL. Confirmation of the inoculum was performed by preparing a serial dilution to give 100 μL of a 5000-fold dilution, all of which was then plated onto an appropriate plate.
Each plate included 2 wells with no bacterial inoculum (negative control) and 2 wells with no test compound and no antibiotic (positive control). The plate was covered and incubated with gentle shaking for 16-20 hours at 37° C. in air (CO2 for H. influenzae). Absorbance was read at 540 nm (Multiskan Titertek mcc/340). Bacterial growth was scored as follows:
(§2) In some cases, the determination of MIC in the presence of test compound was performed at more than one concentration of the test compound.
The impact of the novel β-lactamase inhibitors is expressed as the ratio of the MIC determined in the absence of β-lactamase inhibitor to the MIC determined in the presence of the specified concentration of the β-lactamase inhibitor test compound.

[3] = system: Pseudomonas aeroginosa [ATCC#98043010-intermediate resistance]; assay: Synergy against highly resistant β-lactamase positive strains; assay type: cell-based
Procedure: as §1
(§3) A sterile loop was touched to 3 colonies and used to inoculate 1 mL of Mueller-Hinton Broth (MHB). The bacterial solution was diluted 18.8-fold (20 μL of bacterial solution in […] of broth). 5 μL of the resultant inoculum solution contained ˜4×10^4 CFU/mL. Confirmation of the inoculum was performed by preparing a serial dilution to give 100 μL of a 5000-fold dilution, all of which was then plated onto an appropriate plate. After incubation overnight at 37° C., the plate had 75-150 colonies.
(§4) In each well of a 96-well microtiter plate was combined 5 μL of bacterial inoculum, 90 μL of antibiotic dilutions, and 5 μL of test compound (or media for determination of the MIC of the antibiotic in the absence of test compound). Each plate included 2 wells with no bacterial inoculum (negative control) and 2 wells with no test compound and no antibiotic (positive control). The plate was covered and incubated with gentle shaking for 16-20 hours at 37° C. in air (CO2 for H. influenzae). Absorbance was read at 540 nm (Multiskan Titertek mcc/340). Bacterial growth was scored as follows:
as §2
(§5) The impact of the novel β-lactamase inhibitors is expressed as the ratio of the MIC determined in the absence of β-lactamase inhibitor to the MIC determined in the presence of the specified concentration of the β-lactamase inhibitor test compound. […]
(§6) Following procedures identical to those described in Example 72, β-lactamase inhibitors were tested for their ability to enhance antibiotic efficacy against β-lactamase positive bacterial strains that are very highly resistant to β-lactam antibiotics.
(§7) • Enterobacter cloacae (derepressed) • Pseudomonas aeroginosa [ATCC#12470-resistant] • Stenotrophomonas maltophilia [ATCC#12968-resistant] • Pseudomonas aeroginosa [ATCC#98043010-intermediate resistance] • Stenotrophomonas maltopilia [ATCC#98043029-intermediate resistance]

[4] = system: Stenotrophomonas maltophilia [ATCC#12968-resistant]; assay: as above; assay type: cell-based
Procedure: as §1, §3, §4, §2, §5, §6, §7

[5] = system: Enterobacter cloacae (derepressed); assay: as above; assay type: cell-based; conditions: derepressed strain
Procedure: as §1, §3, §4, §2, §5, §6, §7

[6] = system: Stenotrophomonas maltophilia [ATCC#98043029-intermediate resistance]; assay: as above; assay type: cell-based
Procedure: as §1, §3, §4, §2, §5, §6, §7

[7] = system: Pseudomonas aeroginosa [ATCC#12470-resistant]; assay: as above; assay type: cell-based
Procedure: as §1, §3, §4, §2, §5, §6, §7

P99 β-lactamase (class C), sequence (P05364 21-381): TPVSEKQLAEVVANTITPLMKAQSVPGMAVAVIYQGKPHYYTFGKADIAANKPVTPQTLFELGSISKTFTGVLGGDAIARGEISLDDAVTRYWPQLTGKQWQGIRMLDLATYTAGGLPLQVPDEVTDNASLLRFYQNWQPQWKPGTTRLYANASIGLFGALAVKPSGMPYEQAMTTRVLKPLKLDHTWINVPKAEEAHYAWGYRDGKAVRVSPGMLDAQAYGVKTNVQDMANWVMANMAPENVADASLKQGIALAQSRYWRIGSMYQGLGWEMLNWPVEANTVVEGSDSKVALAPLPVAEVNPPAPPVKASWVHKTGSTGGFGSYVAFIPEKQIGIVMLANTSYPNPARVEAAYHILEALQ

O=[N+]([O-])c1ccc(OP(=O)(O)CNS(=O)(=O)c2cc3c(Cl)ccc(Cl)c3s2)cc1 [Compound 128, (5,8-dichlorobenzothiophene-2-sulfonyl)aminomethylphosphonic acid mono-(4-nitrophenyl) ester ammonium salt]
IC50 [1]: 100 nM | Synergy Class C E. Cl [2]: 16 | Synergy Intermed. Pseudo. ([3]; inhibitor 1 μg/mL): 1 | Synergy Intermed. Pseudo. ([3]; inhibitor 10 μg/mL): 2 | Synergy Resistant Stenotro. ([4]; inhibitor 1 μg/mL): 1 | Synergy Resistant Stenotro. ([4]; inhibitor 10 μg/mL): 1 | Synergy Resistant Ent. Cloacae ([5]; inhibitor 1 μg/mL): 1 | Synergy Resistant Ent. Cloacae ([5]; inhibitor 10 μg/mL): 5 | Synergy Intermed. Stenotro. ([6]; inhibitor 1 μg/mL): 1 | Synergy Intermed. Stenotro. ([6]; inhibitor 10 μg/mL): 2 | Synergy Resistant Pseudo. ([7]; inhibitor 1 μg/mL): 1 | Synergy Resistant Pseudo. ([7]; inhibitor 10 μg/mL): 1 | logP (physchem): 0.45
